{"source": "patent US20160324770A1", "about": "“INTRATHECAL ADMINISTRATION, PREFERABLY INTRAVENTRICULAR, OF MTOR INHIBITORS FOR THE THERAPY OF SOME NEURODEGENERATIVE, NEUROINFLAMMATORY AND NEURO-ONCOLOGIC DISEASES” (priority 2012, published 2016)", "key": {"[1]": {"tested_on": "p70-S6 kinase phosphorylation (measure of mTOR activity)", "experiment": "Western blot of p70S6K phosphorylation in brain, liver and spleen (verification of mTOR inhibition)", "type": "in vivo, mice", "experimental": "The frozen mouse tissues were homogenized in T-PER solution (Pierce) containing a cocktail of protease inhibitors (Sigma-Aldrich) and a cocktail of phosphatase inhibitors (Sigma-Aldrich). The homogenized samples were sonicated 3 times for 15 sec (amplitude of 10 microns) at 4° C. using an MSE soniprep 150 sonicator (Sanyo), and subsequently centrifuged at 4° C. for 30 minutes at 16000 g. The supernatant was recovered and the proteins quantified by means of a Bradford assay using BSA as the standard.\nFor the Western blot analysis, the proteins were separated by SDS-PAGE under reducing conditions according to the method of Laemmli. Subsequently, the proteins were transferred onto a PVDF membrane (Biorad), which was incubated with the following primary antibodies: anti-phospho-p70S6K (T^389), anti-phospho-p70S6K (S^371), anti-p70S6K (Cell Signaling) and anti-actin (Sigma-Aldrich). After being washed with TBS-Tween (50 mM Tris, pH 7.5, NaCl […] and 0.1% Tween 20), the membrane was incubated with one of the following secondary antibodies: anti-rabbit IgG conjugated to HRP (GE Healthcare) and anti-mouse IgG conjugated to HRP (GE Healthcare). The membrane was developed by means of ECL prime (GE Healthcare).\nVerification of mTOR inhibition. We analyzed the actual inhibition of mTOR by WB. mTOR is a kinase with multiple substrates, one of which is p70-S6 kinase. Phosphorylation of the latter is unanimously considered a measure of mTOR activity."}, "[2]": {"experiment": "Blood and brain concentrations and metabolites (LC-MS) after intraventricular (intracerebral) administration by osmotic pump", "type": "in vivo, mice", "text": "(§1) Intraventricular infusion: Under general anaesthesia obtained with Ketamine/Xylazine, Alzet osmotic pumps (http://www.alzet.com/products/guide_to_use/pump_selection.ht ml) were implanted subcutaneously on the back; a catheter leading from the pump reached the cranial vault, where it was connected to a connector (Brain Kit 3, Alzet) stereotaxically implanted in the cranium until reaching the lateral ventricle. These pumps are capable of infusing their content at a constant speed for 1-4 weeks.\nA quantitative analysis of everolimus in blood and tissue samples was performed with the isotopic dilution method using the LC-MS technique. The chromatographic system was the following: Agilent 1290 Infinity HPLC equipped with a binary pump and HiP Auto Sampler model G4226A. The injection volume was 2 μL, the analytical column used was a Phenomenex Kinetics PFP UHPLC column (Phenomenex, Milan, Italy) […], 1.7 μm, 100 Å, temperature controlled at 55° C. A gradient elution was performed using as solvent A: water with 5 mM ammonium formiate, solvent B: methanol with 0.1% formic acid. The elution profile was the following: solvent A 30%/solvent B 70% for 3 minutes, solvent A 1%/solvent B 99% from 3 to 6 minutes, at a flow velocity of 0.25 mL/min. This setup enabled an elution time of 2.5 minutes. Every injection was preceded by a cycle of washing the injector system with methanol.\nMass spectrometry was conducted using a Q-TOF MS detector model G6540A (Agilent, Germany) equipped with a Dual AJS ESI (electrospray ionization interface) system. The instrument parameters were the following: sheath gas flow: […], sheath gas temperature: 300° C., gas flow: 6 L/min, gas temperature: 300° C., nebulizer pressure: 35 psi, ion spray voltage: 5500 V.\nBoth everolimus and the isotopic internal standard were detected as ammonium adducts in the positive ion mode.\nEverolimus was extracted from whole blood in 1 mL of a methanol solution containing 10% ammonium acetate in order to enable precipitation of most of the serum protein.\nThe blood samples were freeze-dried and subsequently extracted. The extraction process was carried out in a sonication bath for approx. 10 minutes to ensure complete haemolysis and release of the drug from the cell material.\nThe process of extraction from brain samples, divided into right and left hemispheres, was similar to the one for whole blood. The tissue samples were weighed and subsequently freeze-dried. After freeze-drying the samples were finely chopped to facilitate subsequent extraction. 1 mL of the methanol solution was then added to 1% v/v of ammonium formiate with 200 ng/mL of internal standard. The samples were then subjected to 10 minutes of sonication and vortexed to ensure complete extraction of the drug. Then followed centrifugation (10 minutes, 4000 rpm, 10° C.) and the supernatant was separated from the pellet. As previously described, the solutions were purified by means of HybridSPE®-Phospholipid solid-phase extraction cartridges with a total volume of 1 ml (Sigma Aldrich, Milan) to eliminate the excess lipid material. The samples were then immediately submitted to LC-MS analysis.\n(§2) We then decided to look for the maximum tolerable dose by intraventricular administration of everolimus at concentrations 10 times higher than those shown in Table 1: A=25 mg/Kg, B=12.5 mg/Kg, C=[…].\nThough they could not be quantified, the presence of metabolites deriving from the transformation of the drug has been noted in the table."}, "[3]": {"conditions": "mouse, in vivo, 25 mg/kg", "text": "as §1, §2\nTherefore, that dose was ruled out and the mice were sacrificed. […] For the subsequent assessment of therapeutic effectiveness in the different animal models, dose B (12.5 mg/Kg) was selected."}, "[4]": {"conditions": "cited from earlier work"}, "[5]": {"conditions": "dose A=25 mg/Kg intraventricular, treated 3 days"}, "[6]": {"conditions": "dose B=12.5 mg/Kg intraventricular, treated 14 days"}, "[7]": {"conditions": "dose C=6.125 mg/Kg intraventricular, treated 14 days"}}, "note": "Where two headings read alike, the source gives them in different places."}
{"compound": "CO[C@H]1C[C@@H]2CC[C@@H](C)[C@@](O)(O2)C(=O)C(=O)N2CCCC[C@H]2C(=O)O[C@H]([C@H](C)C[C@@H]2CC[C@@H](OCCO)[C@H](OC)C2)CC(=O)[C@H](C)/C=C(\\C)[C@@H](O)[C@@H](OC)C(=O)[C@H](C)C[C@H](C)/C=C/C=C/C=C/1C", "note": "[everolimus]", "values": [{"measurement": "Inhibition of mTOR as shown by WB", "setting": "[1]; intrathecal treatment", "value": "local, but not systemic, inhibition of mTOR"}, {"measurement": "Phosphorylation state of p70-S6 kinase in the brain vs controls", "setting": "[1]; selected dose (12.5 mg/Kg) intraventricular, brain, FIG. 1", "value": "less phosphorylated form than in the controls"}, {"measurement": "Phosphorylation state of p70-S6 kinase in the spleen and liver", "setting": "[1]; selected dose (12.5 mg/Kg) intraventricular, spleen and liver, FIG. 1", "value": "normally phosphorylated"}, {"measurement": "Metabolites", "setting": "[2]; dose A, brain field T8 dx", "value": "No metabolites"}, {"measurement": "Metabolites", "setting": "[2]; dose A, brain field T9 sx", "value": "No metabolites"}, {"measurement": "Brain Conc", "setting": "[2]; [5]", "value": 20.4, "unit": "ng/g"}, {"measurement": "Conc/250 mg brain, Left hemisphere", "setting": "[2]; [5]", "value": "4.9 ± 2.3 /250 mg brain"}, {"measurement": "Conc/250 mg brain, Right hemisphere", "setting": "[2]; [5]", "value": "5.3 ± 2.8 /250 mg brain"}, {"measurement": "Metabolites", "setting": "[2]; dose B, brain field T5- dx", "value": "No metabolites"}, {"measurement": "Metabolites", "setting": "[2]; dose B, brain field T6 sx", "value": "No metabolites"}, {"measurement": "Brain Conc", "setting": "[2]; [6]", "value": "12 to 16", "unit": "ng/g"}, {"measurement": "Conc/250 mg brain, Left hemisphere", "setting": "[2]; [6]", "value": "2.91 ± 0.8 /250 mg brain"}, {"measurement": "Conc/250 mg brain, Right hemisphere", "setting": "[2]; [6]", "value": "3.1 ± 1.6 /250 mg brain"}, {"measurement": "Metabolites", "setting": "[2]; dose C, brain field T1- dx", "value": "No metabolites"}, {"measurement": "Metabolites", "setting": "[2]; dose C, brain field T1- sx", "value": "No metabolites"}, {"measurement": "Metabolites", "setting": "[2]; dose C, brain field T2- dx", "value": "No metabolites"}, {"measurement": "Metabolites", "setting": "[2]; dose C, brain field T2- sx", "value": "No metabolites"}, {"measurement": "Brain Conc", "setting": "[2]; [7]", "value": 11.8, "unit": "ng/g"}, {"measurement": "Conc/250 mg brain, Left hemisphere", "setting": "[2]; [7]", "value": "2.5 ± 0.2 /250 mg brain"}, {"measurement": "Conc/250 mg brain, Right hemisphere", "setting": "[2]; [7]", "value": "3.4 ± 0.7 /250 mg brain"}, {"measurement": "concentration at 3 days", "setting": "[2]; mouse, whole blood, other: intraventricular infusion by osmotic pump, dose A=25 mg/Kg intraventricular, treated 3 days, read-out: Conc, Blood", "value": "< 1000", "unit": "ng/g"}, {"measurement": "concentration at 14 days", "setting": "[2]; mouse, whole blood, other: intraventricular infusion by osmotic pump, dose B=12.5 mg/Kg intraventricular, treated 14 days, read-out: Conc, Blood", "value": "< 1000", "unit": "ng/g"}, {"measurement": "concentration at 14 days", "setting": "[2]; mouse, whole blood, other: intraventricular infusion by osmotic pump, dose C=6.125 mg/Kg intraventricular, treated 14 days, read-out: Conc, Blood", "value": "< 1000", "unit": "ng/g"}, {"measurement": "Tolerability observations", "setting": "[3]", "value": "reduction in spontaneous motility and a very slight weight reduction"}, {"measurement": "half-life", "setting": "[4]", "value": "28 to 32", "unit": "h"}]}
